Measurements taken from EP0321364A2, “Orally administrable cephalosporin derivatives, and the production and uses thereof” (ZAIDAN HOJIN BISEIBUTSU KAGAKU KENKYU KAI, priority 1987, dated 1989).
In brackets after ≈: the same amount, converted by molar mass. Like-named read-outs stand apart in the source and are kept apart here.

Assays:
[1] = system: Bacillus subtilis ATCC6633; assay: MIC, serial dilution method in Müller-Hinton agar; assay type: cell-based; details: 37°C, 18 hours
Experimental: (§1) The antibacterial activities of the cephalosporin compounds of the formula (I) according to this invention, specifically the final product compounds of the Examples 1 to 6 given hereinafter, were assayed in term of their minimum inhibitory concentrations (MIC; mcg/ml) against various test bacteria, as determined according to a standard serial dilution method in Müller-Hinton agar medium (a product of Difico company), where the incubation was made at 37°C for 18 hours. For the comparison purpose, the antibacterial spectrum of a known compound, Cefalexin (abbreviated as CEX) was also assayed in the same way as above.

[2] = system: Escherichia coli K-12 C600; assay: MIC, serial dilution method in Müller-Hinton agar; assay type: cell-based; details: K12C600; Escherichia coli K-12 C600; Müller-Hinton agar, 37°C, 18 hours; read-out: MIC
Experimental: as §1

[3] = system: Escherichia coli NIHJ-JS-2; assay: MIC, serial dilution method in Müller-Hinton agar; assay type: cell-based; details: NIHJJS2; Escherichia coli NIHJ-JS-2; Müller-Hinton agar, 37°C, 18 hours; read-out: MIC
Experimental: as §1

[4] = system: Klebsiella oxytosa GN10560; assay: MIC, serial dilution method in Müller-Hinton agar; assay type: cell-based; details: Klebsiella oxytosa GN10560, cefuroximase producing strain, 37°C, 18 hours
Experimental: as §1

[5] = system: Klebsiella pneumoniae PCI602; assay: MIC, serial dilution method in Müller-Hinton agar; assay type: cell-based
Experimental: as §1

[6] = system: Micrococcus luteus ATCC9341; assay: MIC, serial dilution method in Müller-Hinton agar; assay type: cell-based; details: 37°C, 18 hours
Experimental: as §1

Proteus morganii IFO3848 = assay: MIC, serial dilution method in Müller-Hinton agar; assay type: cell-based; details: Morganella morganii
Experimental: as §1

Proteus rettgeri IFO3850 = assay: MIC, serial dilution method in Müller-Hinton agar; assay type: cell-based; details: Providencia rettgeri
Experimental: as §1

Proteus vulgaris OX-19 = assay: MIC, serial dilution method in Müller-Hinton agar; assay type: cell-based; details: OX19, 37°C, 18 hours
Experimental: as §1

[7] = system: Pseudomonas aeruginosa IFO3445; assay: MIC, serial dilution method in Müller-Hinton agar; assay type: cell-based; details: 37°C, 18 hours
Experimental: as §1

[8] = system: Rms139/MI Pseudomonas aeruginosa; assay: MIC, serial dilution method in Müller-Hinton agar; assay type: cell-based; details: 18 h
Experimental: as §1

[9] = system: Rms212/Escherichia coli K-12 W3630; assay: MIC, serial dilution method in Müller-Hinton agar; assay type: cell-based; details: 18 h
Experimental: as §1

[10] = system: Rms213/Escherichia coli K-12 W3630; assay: MIC, serial dilution method in Müller-Hinton agar; assay type: cell-based; details: 18 h
Experimental: as §1

[11] = system: Rms823/Escherichia coli K-12 W3630; assay: MIC, serial dilution method in Müller-Hinton agar; assay type: cell-based; details: 18 h
Experimental: as §1

[12] = system: Rte16/Escherichia coli K-12 W3630; assay: MIC, serial dilution method in Müller-Hinton agar; assay type: cell-based; details: 18 h
Experimental: as §1

[13] = system: Salmonella enteritidis G14; assay: MIC, serial dilution method in Müller-Hinton agar; assay type: cell-based; details: Salmonella enterica
Experimental: as §1

[14] = system: Salmonella paratyphi 1015; assay: MIC, serial dilution method in Müller-Hinton agar; assay type: cell-based; details: Salmonella enterica, 37°C, 18 hours
Experimental: as §1

[15] = system: Salmonella schottmulleri 8006; assay: MIC, serial dilution method in Müller-Hinton agar; assay type: cell-based; details: 37°C, 18 hours
Experimental: as §1

Salmonella typhi 901 = assay: MIC, serial dilution method in Müller-Hinton agar; assay type: cell-based; details: Salmonella enterica, 18 h
Experimental: as §1

[16] = system: Salmonella typhimurium IID971; assay: MIC, serial dilution method in Müller-Hinton agar; assay type: cell-based; details: Salmonella enterica
Experimental: as §1

[17] = system: Staphylococcus aureus FDA209P JC-1; assay: MIC, serial dilution method in Müller-Hinton agar; assay type: cell-based
Experimental: as §1

[18] = system: Staphylococcus aureus MS353; assay: MIC, serial dilution method in Müller-Hinton agar; assay type: cell-based
Experimental: as §1

[19] = system: Staphylococcus aureus Terajima; assay: MIC, serial dilution method in Müller-Hinton agar; assay type: cell-based; details: 37°C, 18 hours
Experimental: as §1

[20] = Test 1: urinary recovery after oral administration; assay type: in vivo; details: mice (ICR-strain, female), 300 mcg per mouse, urine collected until 5 hours after administration, microbial assay, molar percentage
Experimental: To mice (ICR-strain, female, 4 weeks-aged) was orally administered a new cephalosporin compound according to this invention at a dosage of 300 mcg per mouse. Until the end of 5 hours after oral administration of the test cephalosporin compound, all the volumes of urine discharged by the treated mice were collected together, and the total amount of the test compound remaining in the collected urine was measured by a microbial assay method. The urinary recovery of the test compound was calculated in terms of percentage of the molar quantity of the test compound as recovered, against the molar quantity of the test compound as orally given.

[21] = Klebsiella pneumoniae, PCI602, 18 h
[22] = Proteus morganii IFO3848, Müller-Hinton agar, 37°C, 18 hours, read-out: MIC
[23] = Proteus rettgeri IFO3850, Müller-Hinton agar, 37°C, 18 hours, read-out: MIC
[24] = Staphylococcus aureus FDA209P JC-1, Müller-Hinton agar, 37°C, 18 hours, read-out: MIC
[25] = Staphylococcus aureus MS353, Müller-Hinton agar, 37°C, 18 hours, read-out: MIC
[26] = Klebsiella pneumoniae PCI602, Müller-Hinton agar, 37°C, 18 hours, read-out: MIC
[27] = Salmonella enteritidis G14, Müller-Hinton agar, 37°C, 18 hours, read-out: MIC
[28] = Staphylococcus aureus, FDA209P, 18 h
[29] = Staphylococcus aureus, MS353, 18 h

Structure (SMILES)	MIC [1] [µg/mL]	MIC [2] [µg/mL]	MIC [3] [µg/mL]	MIC [4] [µg/mL]	MIC [5, 21] [µg/mL]	MIC [6] [µg/mL]	MIC (Proteus vulgaris OX-19) [µg/mL]	MIC [7] [µg/mL]	MIC [8] [µg/mL]	MIC [9] [µg/mL]	MIC [10] [µg/mL]	MIC [11] [µg/mL]	MIC [12] [µg/mL]	MIC [14] [µg/mL]	MIC [15] [µg/mL]	MIC (Salmonella typhi 901) [µg/mL]	MIC ([16]; 18 h) [µg/mL]	MIC [19] [µg/mL]	dose excreted [20] [%]	MIC [13, 27] [µg/mL]	also measured
C=CC1=C(C(=O)O)N2C(=O)C(NC(=O)[C@H](N)c3ccc(CO)c(O)c3)[C@H]2SC1 (stereo partly drawn) [Example 3 Compound, 7-{(R)-2-amino-2-(3-hydroxy-4-hydroxymethylphenyl)acetamido}-3-vinyl-3-cephem-4-carboxylic acid]	0.05 (≈ 0.123 µM)	6.25 (≈ 15.4 µM)	6.25 (≈ 15.4 µM)	> 100	3.13 (≈ 7.72 µM)	0.2 (≈ 0.493 µM)	25 (≈ 61.7 µM)	> 100	> 100	12.5 (≈ 30.8 µM)	12.5 (≈ 30.8 µM)	> 100	12.5 (≈ 30.8 µM)	3.13 (≈ 7.72 µM)	3.13 (≈ 7.72 µM)	3.13 (≈ 7.72 µM)	3.13 (≈ 7.72 µM)	0.2 (≈ 0.493 µM)	65	–	MIC (Proteus morganii IFO3848; [22]): 50 µg/mL (≈ 123 µM); MIC (Proteus rettgeri IFO3850; [23]): 50 µg/mL (≈ 123 µM); MIC ([13]; ENTERITIDIS, 18 h): 3.13 µg/mL (≈ 7.72 µM); MIC [17, 24]: 1.56 µg/mL (≈ 3.85 µM); MIC [18, 25]: 1.56 µg/mL (≈ 3.85 µM)
C/C=C\C1=C(C(=O)O)N2C(=O)C(NC(=O)[C@H](N)c3ccc(CO)c(O)c3)[C@H]2SC1 (stereo partly drawn) [Example 4 Compound, 7-{(R)-2-amino-2-(3-hydroxy-4-hydroxymethylphenyl)acetamido)-3-{(Z)-1-propenyl)-3-cephem-4-carboxylic acid]	0.2 (≈ 0.477 µM)	3.13 (≈ 7.46 µM)	6.25 (≈ 14.9 µM)	> 100	–	0.1 (≈ 0.238 µM)	25 (≈ 59.6 µM)	> 100	> 100	12.5 (≈ 29.8 µM)	6.25 (≈ 14.9 µM)	100 (≈ 238 µM)	12.5 (≈ 29.8 µM)	1.56 (≈ 3.72 µM)	1.56 (≈ 3.72 µM)	0.78 (≈ 1.86 µM)	1.56 (≈ 3.72 µM)	0.1 (≈ 0.238 µM)	58.8	0.78 (≈ 1.86 µM)	MIC [5, 26]: 0.78 µg/mL (≈ 1.86 µM); MIC (Proteus morganii IFO3848; IFO3848, 18 h): 1.56 µg/mL (≈ 3.72 µM); MIC (Proteus rettgeri IFO3850; IFO3850, 18 h): 1.56 µg/mL (≈ 3.72 µM); MIC [17, 28]: 1.56 µg/mL (≈ 3.72 µM); MIC [18, 29]: 1.56 µg/mL (≈ 3.72 µM)
C/C=C\C1=C(C(=O)O)N2C(=O)C(NC(=O)[C@H](N)c3ccc(CO)c(OC)c3)[C@H]2SC1 (stereo partly drawn) [Example 5 Compound, 7-{(R)-2-amino-2-(4-hydroxymethyl-3-methoxyphenyl)acetamido}-3-{(Z)-1-propenyl}-3-cephem-4-carboxylic acid]	0.05 (≈ 0.115 µM)	3.13 (≈ 7.22 µM)	6.25 (≈ 14.4 µM)	> 100	–	0.025 (≈ 0.0577 µM)	50 (≈ 115 µM)	> 100	100 (≈ 231 µM)	12.5 (≈ 28.8 µM)	25 (≈ 57.7 µM)	> 100	3.13 (≈ 7.22 µM)	0.78 (≈ 1.8 µM)	0.39 (≈ 0.9 µM)	1.56 (≈ 3.6 µM)	–	0.1 (≈ 0.231 µM)	47.9	0.78 (≈ 1.8 µM)	MIC [5, 26]: 0.78 µg/mL (≈ 1.8 µM); MIC (Proteus morganii IFO3848; [22]): 3.13 µg/mL (≈ 7.22 µM); MIC (Proteus rettgeri IFO3850; [23]): 3.13 µg/mL (≈ 7.22 µM); MIC ([16]; Salmonella typhimurium IID971, Müller-Hinton agar, 37°C, 18 hours, read-out: MIC): 3.13 µg/mL (≈ 7.22 µM); MIC [17, 28]: 1.56 µg/mL (≈ 3.6 µM); MIC [18, 25]: 0.78 µg/mL (≈ 1.8 µM)
C/C=C\C1=C(C(=O)O)N2C(=O)C(NC(=O)[C@H](N)c3ccc(COC)c(OC)c3)[C@H]2SC1 (stereo partly drawn) [Example 6 Compound, 7-{(R)-2-amino-2-(3-methoxy-4-methoxymethylphenyl)acetamido}-3-{(Z)-1-propenyl}-3-cephem-4-carboxylic acid]	0.05 (≈ 0.112 µM)	6.25 (≈ 14 µM)	25 (≈ 55.9 µM)	> 100	1.56 (≈ 3.49 µM)	0.025 (≈ 0.0559 µM)	100 (≈ 223 µM)	> 100	> 100	100 (≈ 223 µM)	12.5 (≈ 27.9 µM)	> 100	25 (≈ 55.9 µM)	3.13 (≈ 6.99 µM)	1.56 (≈ 3.49 µM)	12.5 (≈ 27.9 µM)	12.5 (≈ 27.9 µM)	0.1 (≈ 0.223 µM)	32.9	6.25 (≈ 14 µM)	MIC (Proteus morganii IFO3848; IFO3848, 18 h): 1.56 µg/mL (≈ 3.49 µM); MIC (Proteus rettgeri IFO3850; IFO3850, 18 h): 12.5 µg/mL (≈ 27.9 µM); MIC [17, 24]: 0.78 µg/mL (≈ 1.74 µM); MIC [18, 29]: 1.56 µg/mL (≈ 3.49 µM)
